Patent US7855212B2, “Pyridinyl acetonitriles” (Merck Serono SA, priority 2003, dated 2010)

What was measured:
[1] = target: rat JNK3 (Rattus norvegicus, UniProt P49187); test: JNK3 in vitro assay (33P incorporation into c-Jun, SPA); format: biochemical; conditions: in vitro potency on rat JNK3; read-out: JUNK3 IC50
Protocol: The compounds of the present invention are inhibitors of JNKs. The phosphorylation of c-jun by JNK2 or JNK3 may be determined by monitoring the incorporation of ^33P into c-jun following the protocol below. The inhibitory activity of the compounds according to formula I, towards c-jun phosphorylation through JNK, is determined by calculating phosphorylation activity in the presence or absence of compounds according to formula I.
JNK3 and/or -2 assays are performed in 96 well MIT plates: incubation of 0.5 μg of recombinant, pre-activated GST-JNK3 or GST-JNK2 with 1 μg of recombinant, biotinylated GST-c-Jun and 2 μM ^33γ-ATP (2 nCi/μl), in the presence or absence of compounds according to formula I and in a reaction volume of 50 μl containing 50 mM Tris-HCl, pH 8.0; 10 mM MgCl2; 1 mM Dithiothreitol, and 100 μM NaVO4. The incubation is performed for 120 min. at R.T and stopped upon addition of 200 μl of a solution containing 250 μg of Streptavidine-coated SPA beads (Amersham, Inc.)*, 5 mM EDTA, 0.1% Triton X-100 and 50 μM ATP, in phosphate saline buffer.
After incubation for 60 minutes at RT, beads are sedimented by centrifugation at 1500×g for 5 minutes, resuspended in 200 μl of PBS containing 5 mM EDTA, 0.1% Triton X-100 and 50 μM ATP and the radioactivity measured in a scintillation β counter, following sedimentation of the beads as described above.

[2] = target: human GSK3 beta (Homo sapiens, UniProt P49841); test: GSK3β in vitro assay (33P phosphorylation of phospho GS2 peptide); format: biochemical; conditions: in vitro potency on human GSK3 beta; read-out: IC50 (μM) GSK3beta
human GSK3 beta, sequence (P49841 whole entry): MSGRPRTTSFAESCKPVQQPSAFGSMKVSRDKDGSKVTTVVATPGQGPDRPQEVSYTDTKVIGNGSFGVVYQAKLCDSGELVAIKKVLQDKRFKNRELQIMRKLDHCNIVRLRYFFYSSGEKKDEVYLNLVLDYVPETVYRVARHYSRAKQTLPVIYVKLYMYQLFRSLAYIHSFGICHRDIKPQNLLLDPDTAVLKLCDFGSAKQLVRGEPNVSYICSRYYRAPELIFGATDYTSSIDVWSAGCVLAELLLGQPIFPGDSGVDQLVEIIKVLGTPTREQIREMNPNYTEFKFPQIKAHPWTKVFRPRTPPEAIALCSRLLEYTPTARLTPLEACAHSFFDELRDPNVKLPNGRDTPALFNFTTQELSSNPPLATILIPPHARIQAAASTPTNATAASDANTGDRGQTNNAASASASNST
Protocol: GSK3β Assay (see Bioorg. Med. Chem. Lett by Naerum et al. 12 p. 1525-1528 (2002))
In a final reaction volume of 25 μl, GSK3β (h) (5-10 mU) is incubated with 8 mM MOPS pH 7.0, 0.2 mM EDTA, 20 μM […](p)EDEEE (being the GSK3 substrate; a phospho GS2 peptide), 10 mM Mg Acetate and [γ-^33P-ATP] (Specific activity approx. 500 cpm/pmol, concentration as required). The reaction is initiated by the addition of Mg^2+ [γ-^33P-ATP]. After incubation for 40 minutes at room temperature, the reaction is stopped by the addition of 5 μl of a 3% phosphoric acid solution. 10 μl of the reaction is then spotted onto a P30 filtermat and washed three times for 5 minutes in 50 mM phosphoric acid and once in methanol prior to drying and the degree of phosphorylation of the substrate is determined by scintillation counting.

rat JNK3, sequence (P49187 whole entry): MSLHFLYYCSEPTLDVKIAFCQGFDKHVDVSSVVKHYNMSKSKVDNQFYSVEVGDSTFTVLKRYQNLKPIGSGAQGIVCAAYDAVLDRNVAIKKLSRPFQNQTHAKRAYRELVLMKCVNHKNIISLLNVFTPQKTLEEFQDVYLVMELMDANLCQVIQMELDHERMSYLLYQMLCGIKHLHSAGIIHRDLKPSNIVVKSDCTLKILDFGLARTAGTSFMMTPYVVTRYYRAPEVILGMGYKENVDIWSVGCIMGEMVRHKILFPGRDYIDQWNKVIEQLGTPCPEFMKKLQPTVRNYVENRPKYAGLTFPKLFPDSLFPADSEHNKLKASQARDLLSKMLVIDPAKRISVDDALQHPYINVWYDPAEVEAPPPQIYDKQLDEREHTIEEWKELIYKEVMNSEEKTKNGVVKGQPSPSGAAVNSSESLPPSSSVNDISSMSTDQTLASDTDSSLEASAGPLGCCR

Work on `CCN1C=CC=C/C1=C(\C#N)c1nc(NC2CCCC2)ncc1C` [Example 14, 4-pyrimidineacetonitrile, 2-(cyclopentylamino)-alpha-(1-ethyl-2(1H)-pyridinylidene)-5-methyl] yielded an IC50 [1] of 6200 nM.
`Cc1cnc(N[C@H]2CCCC[C@@H]2O)nc1/C(C#N)=C1/C=CC=CN1` [Example 22, 4-pyrimidineacetonitrile, 2-[[(1S,2S)-2-hydroxycyclohexyl]amino]-5-methyl-alpha-2(1H)-pyridinylidene-] showed an IC50 [1] of 740 nM.
For `Cc1cnc(NCC2CCCCC2)nc1/C(C#N)=C1/C=CC=CN1` [Example 9, 4-pyrimidineacetonitrile, 2-[(cyclohexylmethyl)amino]-5-methyl-alpha-2 pyridinyl-], the IC50 [1] was 486 nM.
`Cc1cnc(Cl)nc1/C(C#N)=C1/C=CC=CN1` [Intermediate 5, 4-pyrimidineacetonitrile, 2-chloro-5-methyl-alpha-2(1H)-pyridinylidene-] showed an IC50 [1] of 2350 nM.
With `Cc1cnc(NCCc2cccnc2)nc1/C(C#N)=C1/C=CC=CN1` [Example 3, 4-pyrimidineacetonitrile, 5-methyl-2-[[2-(3-pyridinyl)ethyl]amino]-alpha-2(1H)-pyridinylidene-] the IC50 [2] was 0.5 µM.
`Cc1cnc(NC2CCN(Cc3ccccc3)CC2)nc1/C(C#N)=C1/C=CC=CN1` [Example 16, 4-pyrimidineacetonitrile, 5-methyl-2-[[1-(phenylmethyl)-4-piperidinyl]amino]-alpha-2(1H)-pyridinylidene-] gave an IC50 [1] of 665 nM.
In the case of `Cc1cnc(NCCc2ccc(N(C)C)nc2)nc1/C(C#N)=C1/C=CC=CN1` [Example 4, 4-pyrimidineacetonitrile, 2-[[2-[6-(dimethylamino)-3-pyridinyl]ethyl]amino]-5-methyl-alpha-2(1H)-pyridinylidene-], the IC50 [1] is reported as 480 nM.
Compound `CCCC(C)Nc1ncc(C)c(/C(C#N)=C2/C=CC=CN2)n1` (stereo not drawn) [Example 25, 4-pyrimidineacetonitrile, 5-methyl-2-[(1-methylbutyl)amino]-alpha-2-pyridinyl-] has an IC50 [2] of 0.17 µM.
`Cc1cnc(NC2CCC2)nc1/C(C#N)=C1/C=CC=CN1` [Example 11, 4-pyrimidineacetonitrile, 2-(cyclobutylamino)-5-methyl-alpha-2(1H)-pyridinylidene] gave an IC50 [1] of 106 nM.
Compound `Cc1cnc(NC2CCCCC2)nc1/C(C#N)=C1/C=CC=CN1` [Example 8, 4-pyrimidineacetonitrile, 2-(cyclohexylamino)-5-methyl-alpha-2-pyridinyl-] has an IC50 [1] of 70 nM.
`Cc1cnc(NC2CCN(C(=O)OC(C)(C)C)CC2)nc1/C(C#N)=C1/C=CC=CN1` [Example 12, 1-piperidinecarboxylic acid, 4-[[4-[(E)-cyano-2(1H)-pyridinylidenemethyl]-5-methyl-2-pyrimidinyl]amino]-, 1,1-dimethylethyl ester] gave an IC50 [1] of 1140 nM.
For `CNc1nc(NCCc2cccnc2)nc(/C(C#N)=C2/C=CC=CN2)n1` [Example 49, 1,3,5-triazine-2-acetonitrile, 4-(methylamino)-alpha-2-pyridinyl-6-[[2-(3-pyridinyl)ethyl]amino]-], the IC50 [2] was 7.7 µM.
In the case of `Cc1cnc(NC2CC2)nc1/C(C#N)=C1/C=CC=CN1` [Example 15, 4-pyrimidineacetonitrile, 2-(cyclopropylamino)-5-methyl-alpha-2-pyridinyl-], the IC50 [2] is reported as 0.2 µM and the IC50 [1] is reported as 299 nM.
`Cc1cnc(NCC(C)C)nc1/C(C#N)=C1/C=CC=CN1` [Example 20, 4-pyrimidineacetonitrile, 5-methyl-2-[(2-methylpropyl)amino]-alpha-2(1H)-pyridinylidene-] gave an IC50 [1] of 210 nM.
`N#CC(=C1C=CNC=C1)c1ccnc(NCCc2cccnc2)n1` [Example 34, 4-pyrimidineacetonitrile, alpha-4-pyridinyl-2-[[2-(3-pyridinyl)ethyl]amino]-] showed an IC50 [2] of 1.5 µM.
`Cc1cnc(NC(C)C)nc1/C(C#N)=C1/C=CC=CN1` [Example 21, 4-pyrimidineacetonitrile, 5-methyl-2-[(1-methylethyl)amino]-alpha-2(1H)-pyridinylidene-] showed an IC50 [1] of 310 nM.
